From patent US9656990B2, “Cathepsin cysteine protease inhibitors” (Merck Sharp & Dohme Corp., priority 2014, dated 2017)

Tests used:
human cathepsin K = human cathepsin K (UniProt P43236, Y175D/V274L, species not given); experiment: Cathepsin K Assay; assay type: biochemical; conditions: IP from dose response curve; Z-Leu-Arg-AMC substrate, pH 5.5; read-out: hrbCat K (IP (nM))
human cathepsin F = target: T1, human cathepsin F (Homo sapiens, UniProt Q9UBX1); experiment: Cathepsin F Assay; assay type: biochemical; conditions: IP from dose response curve; Z-Phe-Arg-AMC substrate, pH 5.5; read-out: hCat F (IP (nM))
T1 sequence (Q9UBX1 271-484): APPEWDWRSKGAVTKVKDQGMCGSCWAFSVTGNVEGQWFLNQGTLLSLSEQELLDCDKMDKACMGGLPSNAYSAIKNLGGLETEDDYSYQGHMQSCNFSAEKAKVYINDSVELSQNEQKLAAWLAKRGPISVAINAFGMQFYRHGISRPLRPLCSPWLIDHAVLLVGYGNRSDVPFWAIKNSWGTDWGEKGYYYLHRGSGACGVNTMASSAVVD
Protocol: Serial dilutions (1/3) from 500 μM down to 0.025 μM of test compounds were prepared in dimethyl sulfoxide (DMSO). Then 0.5 μL of DMSO from each dilution were added to 18.75 μL of assay buffer (MES, 50 mM (pH 5.5); EDTA, 2.5 mM; DTT, 2.5 mM and 10% DMSO) containing human cathepsin F (10 nM) in assay buffer solution. The assay solutions were mixed for 5-10 seconds on a shaker plate and incubated for 15 minutes at room temperature. Z-Phe-Arg-AMC (8 μM) in 6.25 μL of assay buffer was added to the assay solutions. Hydrolysis of the coumarin leaving group (AMC) was followed by spectrofluorometry (Exλ=360 nm; Emλ=460 nm) for 20 minutes. Percent of inhibition were calculated by fitting experimental values to standard mathematical model for dose response curve.

Row | SMILES | IC50 (human cathepsin K) | IC50 (human cathepsin F)
1 | N#Cc1cc(-n2cc(-c3ccc(N4CCS(=O)(=O)CC4)cc3)c([C@@H]3CCCC[C@H]3C(=O)NC3(C#N)CC3)n2)ccc1F [Example 110, (1R,2R)-2-(1-(3-cyano-4-fluorophenyl)-4-(4-(1,1-dioxidothiomorpholino)phen-yl)-1H-pyrazol-3-yl)-N-(1-cyanocyclopropyl)cyclohex-anecarboxamide] | 0.83 nM | 275 nM
2 | CN=S1(=O)CCN(c2ccc(-c3cn(-c4ccc(F)cn4)nc3[C@@H]3CC[C@H](F)C[C@H]3C(=O)NC3(C#N)CC3)cc2)CC1 [Example 159, (1R,2R,5S)-N-(1-cyanocyclopropyl)-5-fluoro-2-(1-(5-fluoropyridin-2-yl)-4-(4-(1-(methylimino)-1-oxidothiomorpholino)phenyl)-1H-pyrazol-3-yl)cyclohexanecarboxamide] | 3.22 nM | 1410 nM
3 | Cc1ccc(-n2cc(-c3ccc(N4CCS(=O)(=O)CC4)cc3)c([C@@H]3CCCC[C@H]3C(=O)NC3(C#N)CC3)n2)c(C#N)c1 [Example 107, (1R,2R)-2-(1-(2-cyano-4-methylphenyl)-4-(4-(1,1-dioxidothiomorpholino)phen-yl)-1H-pyrazol-3-yl)-N-(1-cyanocyclopropyl)cyclohex-anecarboxamide] | 3 nM | 1400 nM
4 | Cn1cc(-n2cc(-c3ccc(N4CCS(=O)(=O)CC4)cc3)c([C@@H]3CCCC[C@H]3C(=O)NC3(C#N)CC3)n2)cn1 [Example 171, (1R,2R)-N-(1-cyanocyclopropyl)-2-(4-(4-(1,1-dioxidothiomorpholino)phen-yl)-1′-methyl-1′H-[1,4′-bipyrazol]-3-yl)cyclohexanecarboxamide] | 3.38 nM | 2760 nM
5 | Cc1ccc(-n2cc(-c3ccc(N4CCS(=O)(=O)CC4)cc3)c([C@@H]3CCCC[C@H]3C(=O)NC3(C#N)CC3)n2)nn1 [Example 7, (1R,2R)—N-(1-Cyanocyclopropyl)-2-(4-(4-(1,1-dioxidothiomorpholino)phenyl)-1-(6-methylpyridazin-3-yl)-1H-pyrazol-3-yl)cyclohexanecarboxamide] | 1.54 nM | 517 nM
6 | N#CC1(NC(=O)[C@@H]2CCCC[C@H]2c2nn(-c3ccccn3)cc2-c2ccc(N3CCS(=O)(=O)CC3)cc2)CC1 [Example 142, (1R,2R)-N-(1-cyanocyclopropyl)-2-(4-(4-(1,1-dioxidothiomorpholino)phen-yl)-1-(pyridin-2-yl)-1H-pyrazol-3-yl)cyclohexanecarboxamide] | 0.52 nM | 232 nM
7 | N#CC1(NC(=O)[C@@H]2CCCC[C@H]2c2nn(-c3cncc(F)c3)cc2-c2ccc(N3CCS(=O)(=O)CC3)cc2)CC1 [Example 165, (1R,2R)-N-(1-cyanocyclopropyl)-2-(4-(4-(1,1-dioxidothiomorpholino)phen-yl)-1-(5-fluoropyridin-3-yl)-1H-pyrazol-3-yl)cyclohexanecarboxamide] | 0.9 nM | 319 nM
8 | CN=S1(=O)CCN(c2ccc(-c3cn(-c4ccc(F)cc4)nc3[C@@H]3CCCC[C@H]3C(=O)NC3(C#N)CC3)cc2)CC1 [Example 130, (1R,2R)-N-(1-cyanocyclopropyl)-2-(1-(4-fluorophenyl)-4-(4-(1-(methylimino)-1-oxidothiomorpholino)phenyl)-1H-pyrazol-3-yl)cyclohexanecarboxamide] | 1.92 nM | 854 nM
9 | CN=S1(=O)CCN(c2ccc(-c3c([C@@H]4CCCC[C@H]4C(=O)N[C@H](C#N)C(C)C)nn(-c4ncccc4F)c3C)cc2)CC1 [Example 48, (1R,2R)-N-((S)-1-cyano-2-methylpropyl)-2-(1-(3-fluoropyridin-2-yl)-5-methyl-4-(4-(1-(methylimino)-1-oxidothiomorpholino)phenyl)-1H-pyrazol-3-yl)cyclohexanecarboxamide] | 19.2 nM | 7350 nM
10 | N#Cc1ccc(-n2cc(-c3ccc(N4CCS(=O)(=O)CC4)cc3)c([C@@H]3CCCC[C@H]3C(=O)NC3(C#N)CC3)n2)c(F)c1 [Example 132, (1R,2R)-2-(1-(4-cyano-2-fluorophenyl)-4-(4-(1,1-dioxidothiomorpholino)phen-yl)-1H-pyrazol-3-yl)-N-(1-cyanocyclopropyl)cyclohex-anecarboxamide] | 2.51 nM | 733 nM
11 | Cc1c(-c2ccc(N3CCS(=O)(=O)CC3)cc2)c([C@@H]2CCCC[C@H]2C(=O)NC2(C#N)CC2)nn1-c1ccc(F)cc1 [Example 139, (1R,2R)-N-(1-cyanocyclopropyl)-2-(4-(4-(1,1-dioxidothiomorpholino)phen-yl)-1-(4-fluorophenyl)-5-methyl-1H-pyrazol-3-yl)cyclohexanecarboxamide] | 7.48 nM | 649 nM
12 | N#CC1(NC(=O)[C@@H]2CC3CC3C[C@H]2c2nn(-c3ccc(Cl)cn3)cc2-c2ccc(N3CCS(=O)(=O)CC3)cc2)CC1 (single isomer, unassigned) [Example 154, (1R,3R,4R,6S) or (1S,3R,4R,6R)-4-(1-(5-chloropyridin-2-yl)-4-(4-(1,1-dioxidothiomorpholino)phen-yl)-1H-pyrazol-3-yl)-N-(1-cyanocyclopropyl)bicyclo [4.1.0]heptane-3-carboxamide] | 0.74 nM | 279 nM
13 | COc1ccc(-n2cc(-c3ccc(N4CCS(=O)(=O)CC4)cc3)c([C@@H]3CCCC[C@H]3C(=O)NC3(C#N)CC3)n2)cc1 [Example 87, (1R,2R)-N-(1-cyanocyclopropyl)-2-(4-(4-(1,1-dioxidothiomorpholino)phen-yl)-1-(4-methoxyphenyl)-1H-pyrazol-3-yl)cyclohexanecarboxamide] | 0.99 nM | 740 nM
14 | CC(C)(C)N=S1(=O)CCN(c2ccc(-c3cn(-c4ccc(F)cc4)nc3[C@@H]3CCCC[C@H]3C(=O)NC3(C#N)CC3)cc2)CC1 [Example 18, (1R,2R)-2-(4-(4-(1-(tert-butylimino)-1-oxidothiomorpholino)phenyl)-1-(4-fluorophenyl)-1H-pyrazol-3-yl)-N-(1-cyanocyclopropyl)cyclohex-anecarboxamide] | 5 nM | 1290 nM
15 | N#CC1(NC(=O)[C@@H]2CCCC[C@H]2c2nn(-c3ccccc3Cl)cc2-c2ccc(N3CCS(=O)(=O)CC3)cc2)CC1 [Example 102, (1R,2R)-2-(1-(2-chlorophenyl)-4-(4-(1,1-dioxidothiomorpholino)phen-yl)-1H-pyrazol-3-yl)-N-(1-cyanocyclopropyl)cyclohex-anecarboxamide] | 2.9 nM | 643 nM
16 | N#CC1(NC(=O)[C@@H]2CCCC[C@H]2c2nn(-c3cccnn3)cc2-c2ccc(N3CCS(=O)(=O)CC3)cc2)CC1 [Example 161, (1R,2R)-N-(1-cyanocyclopropyl)-2-(4-(4-(1,1-dioxidothiomorpholino)phen-yl)-1-(pyridazin-3-yl)-1H-pyrazol-3-yl)cyclohexanecarboxamide] | 1.61 nM | 751 nM
17 | N#CC1(NC(=O)[C@@H]2CCCC[C@H]2c2nn(-c3cc(F)cc(F)c3)cc2-c2ccc(N3CCS(=O)(=O)CC3)cc2)CC1 [Example 118, (1R,2R)-N-(1-cyanocyclopropyl)-2-(1-(3,5-difluorophenyl)-4-(4-(1,1-dioxidothiomorpholino)phen-yl)-1H-pyrazol-3-yl)cyclohexanecarboxamide] | 0.54 nM | 273 nM
